Source: paper PMC5522622 (Drug delivery and translational research, 2017)
Entries after “also recorded” stand apart in the source; their conditions may differ. Blank lines part the entries; values can stand above or below the compound they belong to.

Legend:
adult rat cardiomyocytes = test: Adult rat cardiomyocyte viability by trypan blue assay; assay type: cell-based; settings: 18 h; for cell death: 10 µM, trypan blue; for cell death, concentration dependence: 1, 5 and 10 µM
[1] = In vitro drug release of DoxQ in PBS with 10% FBS at 37 °C, HPLC; assay type: in vitro ADME
β-MHC = β-MHC mRNA expression in RL-14 cells by real-time PCR; settings: 10 µM, 24 h
Water solubility = assay type: physicochemical; settings: stated in words, no test described
BNP = BNP mRNA expression in RL-14 cells by real-time PCR; assay type: cell-based, human; settings: 10 µM, 24 h
CYP3A4 = CYP3A4 (Homo sapiens, UniProt P08684)
[2] = tested on: MDCK-MDR cells (P-gp positive); test: Fluorescence imaging of doxorubicin uptake by MDCK-MDR cells; assay type: cell-based, canine
CYP1B1 [3] = settings: RL-14 cells
[4] = tested on: triple-negative murine breast cancer cell line; test: Cytotoxicity by resazurin blue assay; assay type: cell-based; settings: 72 h
[5] = tested on: human cardiomyocytes (RL-14); test: RL-14 cell viability by MTT assay; assay type: cell-based; settings: 10 µM, 24 h, MTT
α-MHC = α-MHC mRNA expression in RL-14 cells by real-time PCR; settings: 10 µM, 24 h
GST-A1 = GST-A1 mRNA expression in RL-14 cells by real-time PCR; assay type: cell-based, human; settings: 10 µM, 24 h
[6] = tested on: reactive oxygen species in RL-14 cells; test: Reactive oxygen species levels by DCF assay in RL-14 cells; assay type: cell-based, human; settings: 10 µM, 24 h
CYP1B1 [7] = settings: MROD and EROD, RL-14 cells
[8] = RL-14 cell viability by MTT assay; assay type: cell-based, human; settings: human, RL-14 cardiomyocyte cells
HO-1 = HO-1 mRNA expression in RL-14 cells by real-time PCR; assay type: cell-based, human; settings: 10 µM, 24 h

CYP3A4, sequence (P08684 whole entry): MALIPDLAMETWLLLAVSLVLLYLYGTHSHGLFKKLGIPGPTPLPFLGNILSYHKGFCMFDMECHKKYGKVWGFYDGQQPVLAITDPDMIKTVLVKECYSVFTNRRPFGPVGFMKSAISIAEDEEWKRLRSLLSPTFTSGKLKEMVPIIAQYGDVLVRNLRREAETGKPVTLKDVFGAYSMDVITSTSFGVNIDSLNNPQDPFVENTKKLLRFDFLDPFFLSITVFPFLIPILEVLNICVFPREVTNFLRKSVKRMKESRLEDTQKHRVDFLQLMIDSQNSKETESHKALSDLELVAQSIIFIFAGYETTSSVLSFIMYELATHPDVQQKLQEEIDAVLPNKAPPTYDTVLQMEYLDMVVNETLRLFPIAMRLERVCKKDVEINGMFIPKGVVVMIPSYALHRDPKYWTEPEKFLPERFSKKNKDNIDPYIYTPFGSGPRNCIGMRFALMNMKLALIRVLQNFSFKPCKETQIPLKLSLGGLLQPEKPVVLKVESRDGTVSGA

Compound: COc1cccc2c1C(=O)c1c(O)c3c(c(O)c1C2=O)CC(O)(C(=O)CO)CC3OC1CC(NC(=O)CNC(=O)Oc2ccc(-c3oc4cc(O)cc(O)c4c(=O)c3O)cc2O)C(O)C(C)O1 (stereo not shown) [DoxQ, quercetin-Gly-Dox]
cell death (adult rat cardiomyocytes): ~ 17%
cell death, concentration dependence (adult rat cardiomyocytes): dose-response effect
duration of in vitro release of doxorubicin from the conjugate ([1]; Fig. 3): more than 4 days
release t1/2 of quercetin from the conjugate ([1]; aqueous medium, second-order kinetics): approximately 100 h
inhibition of induction of β-MHC mRNA expression compared to doxorubicin (β-MHC): 2.5 folds
water solubility (Water solubility): very poor
inhibition of induction of BNP mRNA expression compared to doxorubicin (BNP): 6 folds
CYP3A4 inhibition (percentage relative to ketoconazole), in words (CYP3A4; 0.01, 0.1, 1, 10, 50 and 100 µM): inhibited CYP3A4 at all the concentrations tested
concentration with the highest CYP3A4 inhibition (CYP3A4; range tested 0.01-100 µM): 10 nM
fluorescence signal in cells compared to free doxorubicin ([2]; 50 nM, Fig. 4): higher
drug uptake (fluorescence signal, ImageJ) compared to free doxorubicin ([2]; after 5-min treatment, Fig. 5a): significantly enhanced
CYP1B1 mRNA expression, in words (CYP1B1 [3]): reversed these effects
inhibition of CYP1B1 mRNA expression compared to doxorubicin (CYP1B1 [3]; Fig. 15a): more than 4 folds
IC50 relative to doxorubicin alone or a mixture of doxorubicin and quercetin [4]: more than twofold higher
cytotoxicity compared to doxorubicin or mixture [4]: substantially less toxic
IC50 ([4]; given in words): micromolar range
cell viability [5]: 77%
prevention of the cytotoxicity mediated by doxorubicin [5]: ~ 25%
inhibition of induction of α-MHC mRNA expression compared to doxorubicin (α-MHC): 1.5 folds
lowering of GST-A1 mRNA expression in comparison to doxorubicin (GST-A1): 1.5 folds
difference in ROS level versus free doxorubicin [6]: ~ 234%
antioxidant capacity compared to quercetin alone (Antioxidant assay kit; 1 and 10 mM): significantly higher
antioxidant capacity compared to a mixture of doxorubicin and quercetin (Antioxidant assay kit; 10 and 50 mM): significantly higher
antioxidant effect compared to doxorubicin (Antioxidant assay kit; all concentrations studied (1, 10, 50)): significantly higher
CYP1B1 catalytic activity, in words (CYP1B1 [7]): significantly inhibited; also recorded: reversed these effects

β-MHC mRNA expression versus control, in words (β-MHC): induced
BNP mRNA expression versus control, in words (BNP): induced
CYP1B1 mRNA expression, in words (CYP1B1 [3]): induced
α-MHC mRNA expression versus control, in words (α-MHC): induced
HO-1 expression lower compared to cells treated with DoxQ (HO-1): 1 fold
CYP1B1 catalytic activity, in words (CYP1B1 [7]): induced
Compound: COc1cccc2c1C(=O)c1c(O)c3c(c(O)c1C2=O)C[C@@](O)(C(=O)CO)C[C@@H]3O[C@H]1C[C@H](N)[C@H](O)[C@H](C)O1 [doxorubicin, Doxorubicin, reference compound]
cell death (adult rat cardiomyocytes): ~ 22%
cell death, concentration dependence (adult rat cardiomyocytes): dose-response effect
viability at 24 h, 10 µM [8]: 52%
